Measured values reported in patent publication US10278948B1, “Method for transnasal delivery of anticonvulsant and therapeutic treatments” (priority 2015, dated 2019).
Read-outs that look alike come from different tables or passages of the source.

Experiments:
[1] = cited from earlier work; for mean percent weight loss from baseline to week 24: placebo −2.6%
[2] = Transnasal administration of topiramate to the sphenopalatine ganglion in human patients (Example 1); format: in vivo
Text: The devices and methods described above were applied to the treatment of human patients for headache pain, when the inventor observed a dramatic effect with regard to treating obesity and promoting weight-loss. The results of this testing are surprising and unexpected in view of efficacy of the very low dosages administered as compared to published treatment regimens using topiramate without any co-delivered medicament for the treatment of obesity. […] The method of treatment was as follows: Topiramate was dissolved in sterile water to a concentration of 5 mg/mL. Then, 0.3 mL of this solution (1.5 mg of topiramate) per nostril was administered transnasally to the sphenopalatine ganglion using a Tx360® nasal applicator (from Tian Medical of Lombard, Ill.) in the manner described above with reference to the devices shown in FIGS. 6-11B and the relative distal-end anatomic positioning described with reference to FIGS. 4-5. This dosage was administered once per week for four weeks. Each patient lost between 5% and 10% of his/her body weight over the four-week period. […] It is expected that dosage may be effective for headache pain and for promoting weight loss as treatment for obesity at a frequency from once or twice per day to once per month when administered at […] delivered as about 0.2-0.3 mL per nostril toward the SPG. Although this sample is very small, it compares highly favorably to published studies using topiramate for weight loss, and the effective dosage was surprising far lower than the effective dosages reported in the literature. As a first example, in Obesity Review 2011 May; 12(5):e338-47. doi: 10.1111/j.1467-789X.2010.00846.x. Epub 2011 Mar. 28. Efficacy and safety of topiramate on weight loss: a meta-analysis of randomized controlled trials, ten clinical studies (3320 individuals) were evaluated, each of which was a randomized controlled study with at least 16 weeks of duration that reported the effect of topiramate on weight loss and adverse events using topiramate at 96-200 mg/day. […] Although the etiology is not apparent, a highly reasonable hypothesis is that the side effects and lack thereof, respectively, may be related to the significant dosage difference and/or administration mode (96-200 mg/day perorally versus 3 mg/week transnasally).

[3] = 96-200 mg/day perorally, at least 16 weeks, ten clinical studies (3320 individuals); cited from earlier work
[4] = cited from earlier work
[5] = every patient, after the first dosage, 3 mg transnasally to the SPG

## CC1(C)O[C@@H]2[C@@H](CO[C@@]3(COS(N)(=O)=O)OC(C)(C)O[C@@H]23)O1 [topiramate, 2,3:4,5-bis-O-(1-methylethylidene)-β-D-fructopyranose sulfamate]
[1]; 64 mg/day topiramate group
  mean percent weight loss from baseline to week 24: −5.0%
[1]; 96 mg/day topiramate group
  mean percent weight loss from baseline to week 24: −4.8%
[1]; 192 mg/day topiramate group
  mean percent weight loss from baseline to week 24: −6.3%
[1]; 384 mg/day topiramate group
  mean percent weight loss from baseline to week 24: −6.3%
[1]; 64-384 mg daily, 24 weeks
  most frequent adverse events: paresthesia, somnolence, and difficulty with memory, concentration, and attention
  percentages of patients who lost at least 5% or 10% of body weight compared with placebo: Greater percentages of topiramate-treated patients lost at least 5% or 10% of body weight compared with placebo
[2]; 3 mg/week transnasally to the SPG
  side effects (paresthesia, taste impairment and psychomotor disturbances) reported by patients: none of which was reported by patients in the presently-reported example
[2]; all patients, 3 mg/week transnasally to the SPG
  regular headache pain (patient-reported): reduced in frequency and severity
[2]; [5]
  craving for food, nicotine, and alcohol (patient-reported): immediate reduction of craving for food, nicotine, and alcohol
  satiety (needing less food intake to feel full; patient-reported): improved satiety
[2]; human patients, 1.5 mg per nostril (3 mg) transnasally to the SPG once per week for four weeks
  patients with effective weight loss: 100%
[3]
  frequently observed side effects: paresthesia, taste impairment and psychomotor disturbances
[4]
  solubility in water: up to 9.8 mg/mL
